Source: patent US20110039879A1, “METHODS FOR INCREASING WHITE BLOOD CELLS” (FibroGen ,Inc., priority 2007, published 2011)

Experiments:
Type in all cases: in vivo, Swiss-Webster mice
[1] = system: total white blood cell (WBC); test: Total white blood cells by complete blood count on day 8, dosing day 1, 3, 5; settings: Mus musculus, 192 h, mice, oral gavage, measured on day 8, read-out: Total WBC % Increase Over Control; for change in vivo at 200 mg/kg: 200 mg/kg on day 1, day 3 and day 5; for change in vivo at 100 mg/kg: 100 mg/kg on day 1, day 3 and day 5; for change in vivo at 20 mg/kg: 20 mg/kg on day 1, day 3 and day 5
Description: (§1) To examine the effect of compounds and methods of the present invention on increasing white blood cells, the following studies were performed. In one series of experiments, male Swiss-Webster mice were administered various compounds of the present invention via oral gavage using a ball-tipped gavage needle. […] Animals were dosed once daily for 3 or 4 days. Six hours after the final dosing, 200 μl blood samples were collected and total white blood cell, neutrophil, and lymphocyte levels were measured by complete blood count (CBC) using a CellDyn cell analyzer (Abbott Laboratories).
(§2) In another series of experiments, male Swiss-Webster mice were administered various compounds (see Table 7 and Table 8) of the present invention via oral gavage using a ball-tipped gavage needle. […] Total WBC, neutrophil, lymphocyte, and monocyte levels were measured in mice as described above on day 8 following administration of compound on day 1, day 3, and day 5.

[2] = system: total white blood cell (WBC); test: as above; settings: mice, oral gavage, measured on day 8
lymphocytes = test: Lymphocytes by complete blood count on day 8, dosing day 1, 3, 5; settings: mice, oral gavage, 6 mg/kg on day 1, day 3 and day 5, measured on day 8; for change in vivo at 6 mg/kg: Mus musculus, Lymphocyte, 192 h, read-out: Lymphocytes % Increase Over Control
Description: as §1, §2

neutrophils = test: Neutrophils by complete blood count on day 8, dosing day 1, 3, 5; settings: mice, oral gavage, 6 mg/kg on day 1, day 3 and day 5, measured on day 8; for change in vivo at 6 mg/kg: Mus musculus, Neutrophil, 192 h, read-out: Neutrophils % Increase Over Control
monocytes = test: Monocytes by complete blood count on day 8, dosing day 1, 3, 5; settings: mice, oral gavage, 6 mg/kg on day 1, day 3 and day 5, measured on day 8
[3] = 200 mg/kg on day 1, day 3 and day 5
[4] = 100 mg/kg on day 1, day 3 and day 5
[5] = Mus musculus, 192 h, 6 mg/kg on day 1, day 3 and day 5, read-out: Total WBC % Increase Over Control
[6] = 6 mg/kg on day 1, day 3 and day 5
[7] = 20 mg/kg on day 1, day 3 and day 5
[8] = 60 mg/kg on day 1, day 3 and day 5

N#Cc1nc(C(=O)NCC(=O)O)c(O)c2cccc(Oc3ccc(F)cc3)c12 [Compound AF, {[1-Cyano-8-(4-fluoro-phenoxy)-4-hydroxy-isoquinoline-3-carbonyl]-amino}-acetic acid]
change in vivo at 200 mg/kg [1]: 35% | Total WBC [2, 3]: 8.2 10^3 cells/μl

N#Cc1nc(C(=O)NCC(=O)O)c(O)c2c(Cl)c(Cl)n(Cc3ccc(-c4ccccc4)cc3)c12 [Compound AV, [(1-Biphenyl-4-ylmethyl-2,3-dichloro-7-cyano-4-hydroxy-1H-pyrrolo[2,3-c]pyridine-5-carbonyl)-amino]-acetic acid]
change in vivo at 100 mg/kg [1]: 137% | Total WBC [2, 4]: 15.2 10^3 cells/μl

N#Cc1nc(C(=O)NCC(=O)O)c(O)c2c(Oc3cccc(Cl)c3)cccc12 [Compound BB, {[5-(3-Chloro-phenoxy)-1-cyano-4-hydroxy-isoquinoline-3-carbonyl]-amino}-acetic acid]
change in vivo at 200 mg/kg [1]: 227% | Total WBC [2, 3]: 20.1 10^3 cells/μl

Cc1nc(C(=O)NCC(=O)O)c(O)c2cccc(Oc3ccc(F)cc3)c12 [Compound AE, {[8-(4-Fluoro-phenoxy)-4-hydroxy-1-methyl-isoquinoline-3-carbonyl]-amino}-acetic acid]
change in vivo at 6 mg/kg (lymphocytes): 105% | Lymphocytes (lymphocytes): 11.0 10^3 cells/μl | change in vivo at 6 mg/kg (neutrophils): 175% | Neutrophils (neutrophils): 1.1 10^3 cells/μl | change in vivo at 6 mg/kg [2, 5]: 109% | Total WBC [2, 6]: 12.3 10^3 cells/μl | Monocytes (monocytes): 0.1 10^3 cells/μl

O=C(O)CNC(=O)c1ncc2cc(Oc3ccc(F)cc3)ccc2c1O [Compound U, {[7-(4-Fluoro-phenoxy)-4-hydroxy-isoquinoline-3-carbonyl]-amino}-acetic acid]
change in vivo at 6 mg/kg [2, 5]: 6% | Total WBC [2, 6]: 8.3 10^3 cells/μl

N#Cc1nc(C(=O)NCC(=O)O)c(O)c2c(Cl)cn(Cc3ccccc3F)c12 [Compound AN, {[3-Chloro-7-cyano-1-(2-fluoro-benzyl)-4-hydroxy-1H-pyrrolo[2,3-c]pyridine-5-carbonyl]-amino}-acetic acid]
change in vivo at 200 mg/kg [1]: 179% | Total WBC [2, 3]: 23.2 10^3 cells/μl

N#Cc1nc(C(=O)NCC(=O)O)c(O)c2cc(C(F)(F)F)n(Cc3ccccc3F)c12 [Compound AQ, {[7-Cyano-1-(2-fluoro-benzyl)-4-hydroxy-2-trifluoromethyl-1H-pyrrolo[2,3-c]pyridine-5-carbonyl]-amino}-acetic acid]
change in vivo at 20 mg/kg [1]: 56% | Total WBC [2, 7]: 9.6 10^3 cells/μl

N#Cc1nc(C(=O)NCC(=O)O)c(O)c2cc(Oc3ccccc3)ccc12 [Compound AG, [(1-Cyano-4-hydroxy-6-phenoxy-isoquinoline-3-carbonyl)-amino]-acetic acid]
change in vivo at 20 mg/kg [1]: 25% | Total WBC [2, 7]: 7.6 10^3 cells/μl

COc1ccc(Cn2cc(Cl)c3c(O)c(C(=O)NCC(=O)O)nc(C#N)c32)cc1 [Compound AM, {[3-Chloro-7-cyano-4-hydroxy-1-(4-methoxy-benzyl)-1H-pyrrolo[2,3-c]pyridine-5-carbonyl]-amino}-acetic acid]
change in vivo at 200 mg/kg [1]: 264% | Total WBC [2, 3]: 23.3 10^3 cells/μl

CC(C)Oc1ccc(Cn2c(Cl)c(Cl)c3c(O)c(C(=O)NCC(=O)O)nc(C#N)c32)cc1 [Compound AX, {[2,3-Dichloro-7-cyano-4-hydroxy-1-(4-isopropoxy-benzyl)-1H-pyrrolo[2,3-c]pyridine-5-carbonyl]-amino}-acetic acid]
change in vivo at 100 mg/kg [1]: 81% | Total WBC [2, 4]: 12.8 10^3 cells/μl

N#Cc1nc(C(=O)NCC(=O)O)c(O)c2cccc(Oc3ccccc3)c12 [Compound AD, [(1-Cyano-4-hydroxy-8-phenoxy-isoquinoline-3-carbonyl)-amino]-acetic acid]
change in vivo at 200 mg/kg [1]: 10% | Total WBC [2, 3]: 7.6 10^3 cells/μl

CC(C)CCn1cc(Cl)c2c(O)c(C(=O)NCC(=O)O)nc(C#N)c21 [Compound AO, {[3-Chloro-7-cyano-4-hydroxy-1-(3-methyl-butyl)-1H-pyrrolo[2,3-c]pyridine-5-carbonyl]-amino}-acetic acid]
change in vivo at 100 mg/kg [1]: 47% | Total WBC [2, 4]: 10.5 10^3 cells/μl

COc1ccc(Cn2c(Cl)c(Cl)c3c(O)c(C(=O)NCC(=O)O)nc(C#N)c32)cc1 [Compound AK, {[2,3-Dichloro-7-cyano-4-hydroxy-1-(4-methoxy-benzyl)-1H-pyrrolo[2,3-c]pyridine-5-carbonyl]-amino}-acetic acid]
change in vivo at 200 mg/kg [1]: 105% | Total WBC [2, 3]: 16.8 10^3 cells/μl

CC(C)Oc1ccc(CN2C=CC3C(O)=C(C(=O)NCC(=O)O)N=C(C#N)C32)cc1 (stereo not drawn) [Compound AZ, {[7-Cyano-4-hydroxy-1-(4-isopropoxy-benzyl)-3a,7a-dihydro-1H-pyrrolo[2,3-c]pyridine-5-carbonyl]-amino}-acetic acid]
change in vivo at 60 mg/kg [1, 8]: 79% | Total WBC [2, 8]: 11.6 10^3 cells/μl

COc1ccc(Cn2cc(Br)c3c(O)c(C(=O)NCC(=O)O)nc(C#N)c32)cc1 [Compound AJ, {[3-Bromo-7-cyano-4-hydroxy-1-(4-methoxy-benzyl)-1H-pyrrolo[2,3-c]pyridine-5-carbonyl]-amino}-acetic acid]
change in vivo at 200 mg/kg [1]: 237% | Total WBC [2, 3]: 21.5 10^3 cells/μl

O=C(O)CNC(=O)c1ncc2cc(Oc3ccc(F)c(Cl)c3)ccc2c1O [Compound W, {[7-(3-Chloro-4-fluoro-phenoxy)-4-hydroxy-isoquinoline-3-carbonyl]-amino}-acetic acid]
change in vivo at 200 mg/kg [1]: 80% | Total WBC [2, 3]: 8.4 10^3 cells/μl

COc1cccc(Oc2ccc3c(O)c(C(=O)NCC(=O)O)nc(C#N)c3c2)c1 [Compound BE, {[1-Cyano-4-hydroxy-7-(3-methoxy-phenoxy)-isoquinoline-3-carbonyl]-amino}-acetic acid]
change in vivo at 6 mg/kg (lymphocytes): 40% | Lymphocytes (lymphocytes): 8.1 10^3 cells/μl | change in vivo at 6 mg/kg (neutrophils): 30% | Neutrophils (neutrophils): 1.0 10^3 cells/μl | change in vivo at 6 mg/kg [2, 5]: 39% | Total WBC [2, 6]: 9.6 10^3 cells/μl | change in vivo at 6 mg/kg (monocytes; Mus musculus, Monocyte, 192 h, read-out: Monocytes % Increase Over Control): 71% | Monocytes (monocytes): 0.3 10^3 cells/μl

N#Cc1nc(C(=O)NCC(=O)O)c(O)c2sccc12 [Compound AA, [(4-Cyano-7-hydroxy-thieno[3,2-c]pyridine-6-carbonyl)-amino]-acetic acid]
change in vivo at 2 mg/kg ([2]; Mus musculus, 192 h, 2 mg/kg on day 1, day 3 and day 5, read-out: Total WBC % Increase Over Control): 20% | Total WBC ([2]; 2 mg/kg on day 1, day 3 and day 5): 7.1 10^3 cells/μl

CC(C)Oc1ccc(Cn2cc(Cl)c3c(O)c(C(=O)NCC(=O)O)nc(C#N)c32)cc1 [Compound BC, {[3-Chloro-7-cyano-4-hydroxy-1-(4-isopropoxy-benzyl)-1H-pyrrolo[2,3-c]pyridine-5-carbonyl]-amino}-acetic acid]
change in vivo at 100 mg/kg [1]: 148% | Total WBC [2, 4]: 15.9 10^3 cells/μl

N#Cc1nc(C(=O)NCC(=O)O)c(O)c2ccn(Cc3ccccc3)c12 [Compound AR, [(1-Benzyl-7-cyano-4-hydroxy-1H-pyrrolo[2,3-c]pyridine-5-carbonyl)-amino]-acetic acid]
change in vivo at 100 mg/kg [1]: 71% | Total WBC [2, 4]: 9.5 10^3 cells/μl

CC(C)Oc1ccc(Cn2c(Cl)c(Cl)c3c(O)c(C(=O)N[C@@H](C)C(=O)O)nc(C#N)c32)cc1 [Compound BD, (S)-2-{[2,3-Dichloro-7-cyano-4-hydroxy-1-(4-isopropoxy-benzyl)-1H-pyrrolo[2,3-c]pyridine-5-carbonyl]-amino}-propionic acid]
change in vivo at 200 mg/kg [1]: 93% | Total WBC [2, 3]: 14.1 10^3 cells/μl

N#Cc1nc(C(=O)NCC(=O)O)c(O)c2c(Oc3ccccc3)cccc12 [Compound AH, [(1-Cyano-4-hydroxy-5-phenoxy-isoquinoline-3-carbonyl)-amino]-acetic acid]
change in vivo at 200 mg/kg [1]: 123% | Total WBC [2, 3]: 9.4 10^3 cells/μl

N#Cc1nc(C(=O)NCC(=O)O)c(O)c2c(Cl)c(Cl)n(Cc3ccc4ccccc4c3)c12 [Compound AP, [(2,3-Dichloro-7-cyano-4-hydroxy-1-naphthalen-2-ylmethyl-1H-pyrrolo[2,3-c]pyridine-5-carbonyl)-amino]-acetic acid]
change in vivo at 100 mg/kg [1]: 88% | Total WBC [2, 4]: 10.8 10^3 cells/μl
